In article PMC11668715 (AMB Express, 2024):
Blank lines part the entries; values can stand above or below the compound they belong to.

Tests used:
MRSA ATCC 43,300 [1] = test: Checkerboard dilution assay; format: cell-based, S. aureus; design: MICalone / MICcombined: unit not given beside the values; conditions: for MICalone: drug alone, checkerboard; for MICalone / MICcombined: MRSA ATCC 43,300; for Fold change: MIC combined vs alone
MRSA ATCC 43,300 [2] = test: Time-killing assay of the synergistical combinations; format: cell-based, S. aureus; conditions: 1/4×MIC of PVB and 1/4×MIC of the antibiotic
[3] = tested on: MRSA and S. epidermidis persister cells; test: Persister cells killing assay; format: cell-based, S. aureus and S. epidermidis; conditions: 64 µg/mL
[4] = group 17: PVB combined with AMK
[5] = group 12: PVB combined with AMP
[6] = group 11: PVB combined with CAZ
[7] = group 14: PVB combined with CEF
[8] = group 13: PVB combined with CEZ
[9] = group 16: PVB combined with CRO
[10] = group 19: PVB combined with KANA
[11] = group 15: PVB combined with OXA
[12] = group 21: PVB combined with SPC
[13] = group 20: PVB combined with TOB
[14] = group 18: PVB combined with GEN

- MICalone (MRSA ATCC 43,300 [1]): 64
- MICcombined (MRSA ATCC 43,300 [1]; [4]): > 64
Compound: NCC[C@H](O)C(=O)N[C@@H]1C[C@H](N)[C@@H](O[C@H]2O[C@H](CN)[C@@H](O)[C@H](O)[C@H]2O)[C@H](O)[C@H]1O[C@H]1O[C@H](CO)[C@@H](O)[C@H](N)[C@H]1O [AMK, amikacin]
- FICI (MRSA ATCC 43,300 [1]; group 17: PVB + AMK): > 2
- Outcome (MRSA ATCC 43,300 [1]; group 17: PVB + AMK): indifference/antagonism
- Fold change (MRSA ATCC 43,300 [1]; [4]): > 1

- MICalone (MRSA ATCC 43,300 [1]): 16
- MICcombined (MRSA ATCC 43,300 [1]; [5]): 4
Compound: CC1(C)S[C@@H]2[C@H](NC(=O)[C@H](N)c3ccccc3)C(=O)N2[C@H]1C(=O)O [AMP, ampicillin]
- FICI (MRSA ATCC 43,300 [1]; group 12: PVB + AMP): 0.5
- Fold change (MRSA ATCC 43,300 [1]; [5]): 0.25
- bactericidal activity of combination with PVB (time-killing) (MRSA ATCC 43,300 [2]): synergistical bactericidal activity

- MICalone (MRSA ATCC 43,300 [1]): > 256
- MICcombined (MRSA ATCC 43,300 [1]; group 4: PVB combined with AZI): > 256
Compound: CC[C@H]1OC(=O)[C@H](C)[C@@H](O[C@H]2C[C@@](C)(OC)[C@@H](O)[C@H](C)O2)[C@H](C)[C@@H](O[C@@H]2O[C@H](C)C[C@H](N(C)C)[C@H]2O)[C@](C)(O)C[C@@H](C)CN(C)[C@H](C)[C@@H](O)[C@]1(C)O [AZI, azithromycin]
- FICI (MRSA ATCC 43,300 [1]; group 4: PVB + AZI): 2
- Fold change (MRSA ATCC 43,300 [1]; group 4: PVB combined with AZI): 1

- MICalone (MRSA ATCC 43,300 [1]): 32
- MICcombined (MRSA ATCC 43,300 [1]; [6]): 8
Compound: CC(C)(O/N=C(\C(=O)N[C@@H]1C(=O)N2C(C(=O)[O-])=C(C[n+]3ccccc3)CS[C@H]12)c1csc(N)n1)C(=O)O [CAZ, ceftazidime]
- FICI (MRSA ATCC 43,300 [1]; group 11: PVB + CAZ): 0.75
- Fold change (MRSA ATCC 43,300 [1]; [6]): 0.25

- MICalone (MRSA ATCC 43,300 [1]): 2
- MICcombined (MRSA ATCC 43,300 [1]; [7]): 0.5
Compound: CO/N=C(\C(=O)N[C@@H]1C(=O)N2C(C(=O)O)=C(COC(C)=O)CS[C@H]12)c1csc(N)n1 [CEF, cefotaxime]
- Fold change (MRSA ATCC 43,300 [1]; [7]): 0.25
- bactericidal activity of combination with PVB (time-killing) (MRSA ATCC 43,300 [2]): synergistical bactericidal activity

- MICalone (MRSA ATCC 43,300 [1]): 16
- MICcombined (MRSA ATCC 43,300 [1]; [8]): 8
Compound: Cc1nnc(SCC2=C(C(=O)O)N3C(=O)[C@@H](NC(=O)Cn4cnnn4)[C@H]3SC2)s1 [CEZ, cefazolin]
- FICI (MRSA ATCC 43,300 [1]; group 13: PVB + CEZ): 0.5625
- Fold change (MRSA ATCC 43,300 [1]; [8]): 0.5

- MICalone (MRSA ATCC 43,300 [1]): 32
- MICcombined (MRSA ATCC 43,300 [1]; [9]): 2
Compound: CO/N=C(\C(=O)N[C@@H]1C(=O)N2C(C(=O)O)=C(CSc3nc(=O)c(=O)[nH]n3C)CS[C@H]12)c1csc(N)n1 [CRO, ceftriaxone]
- FICI (MRSA ATCC 43,300 [1]; group 16: PVB + CRO): 0.5625
- Fold change (MRSA ATCC 43,300 [1]; [9]): 0.0625

Compound: CCCCCCCCCC(=O)N[C@@H](Cc1c[nH]c2ccccc12)C(=O)N[C@H](CC(N)=O)C(=O)N[C@@H](CC(=O)O)C(=O)N[C@@H]1C(=O)NCC(=O)N[C@@H](CCCN)C(=O)N[C@@H](CC(=O)O)C(=O)N[C@H](C)C(=O)N[C@@H](CC(=O)O)C(=O)NCC(=O)N[C@H](CO)C(=O)N[C@@H]([C@H](C)CC(=O)O)C(=O)N[C@@H](CC(=O)c2ccccc2N)C(=O)O[C@@H]1C [DAP, daptomycin]
- MICalone (MRSA ATCC 43,300 [1]): 0.25
- FICI (MRSA ATCC 43,300 [1]; group 6: PVB + DAP): 1
- Fold change (MRSA ATCC 43,300 [1]; group 6: PVB combined with DAP): 0.5
- MICcombined (MRSA ATCC 43,300 [1]; group 6: PVB combined with DAP): 0.125

- MICalone (MRSA ATCC 43,300 [1]): 0.25
- MICcombined (MRSA ATCC 43,300 [1]; group 2: PVB combined with DOX): 0.25
Compound: C[C@H]1c2cccc(O)c2C(=O)C2=C(O)[C@]3(O)C(=O)C(C(N)=O)=C(O)[C@@H](N(C)C)[C@@H]3[C@@H](O)[C@@H]21 [DOX, doxycycline]
- FICI (MRSA ATCC 43,300 [1]; group 2: PVB + DOX): 2
- Fold change (MRSA ATCC 43,300 [1]; group 2: PVB combined with DOX): 1

Compound: CC[C@H]1OC(=O)[C@H](C)[C@@H](O[C@H]2C[C@@](C)(OC)[C@@H](O)[C@H](C)O2)[C@H](C)[C@@H](O[C@@H]2O[C@H](C)C[C@H](N(C)C)[C@H]2O)[C@](C)(O)C[C@@H](C)C(=O)[C@H](C)[C@@H](O)[C@]1(C)O [E, erythromycin]
- FICI (MRSA ATCC 43,300 [1]; group 3: PVB + E): 2

- MICalone (MRSA ATCC 43,300 [1]): 32
- MICcombined (MRSA ATCC 43,300 [1]; group 7: PVB combined with FOS): 32
Compound: C[C@@H]1O[C@@H]1P(=O)(O)O [FOS, fosfomycin]
- FICI (MRSA ATCC 43,300 [1]; group 7: PVB + FOS): 2
- Fold change (MRSA ATCC 43,300 [1]; group 7: PVB combined with FOS): 1

- MICalone (MRSA ATCC 43,300 [1]): 256
- MICcombined (MRSA ATCC 43,300 [1]; [10]): 1024
Compound: NC[C@H]1O[C@H](O[C@H]2[C@H](O)[C@@H](O[C@H]3O[C@H](CO)[C@@H](O)[C@H](N)[C@H]3O)[C@H](N)C[C@@H]2N)[C@H](O)[C@@H](O)[C@@H]1O [KANA, kanamycin]
- FICI (MRSA ATCC 43,300 [1]; group 19: PVB + KANA): 4.5
- Outcome (MRSA ATCC 43,300 [1]; group 19: PVB + KANA): antagonism (an antagonism effect was defined as FICI > 4)
- Fold change (MRSA ATCC 43,300 [1]; [10]): 4

- MICalone (MRSA ATCC 43,300 [1]): 0.125
- MICcombined (MRSA ATCC 43,300 [1]; group 5: PVB combined with LEV): 0.125
Compound: C[C@H]1COc2c(N3CCN(C)CC3)c(F)cc3c(=O)c(C(=O)O)cn1c23 [LEV, levofloxacin]
- FICI (MRSA ATCC 43,300 [1]; group 5: PVB + LEV): 2
- Fold change (MRSA ATCC 43,300 [1]; group 5: PVB combined with LEV): 1

- MICalone (MRSA ATCC 43,300 [1]): 2
- MICcombined (MRSA ATCC 43,300 [1]; group 8: PVB combined with LZD): 2
Compound: CC(=O)NC[C@H]1CN(c2ccc(N3CCOCC3)c(F)c2)C(=O)O1 [LZD, linezolid]
- FICI (MRSA ATCC 43,300 [1]; group 8: PVB + LZD): 2
- Fold change (MRSA ATCC 43,300 [1]; group 8: PVB combined with LZD): 1

- MICalone (MRSA ATCC 43,300 [1]): 16
- MICcombined (MRSA ATCC 43,300 [1]; [11]): 2
Compound: Cc1onc(-c2ccccc2)c1C(=O)N[C@@H]1C(=O)N2[C@@H]1SC(C)(C)[C@@H]2C(=O)O [OXA, oxacillin]
- FICI (MRSA ATCC 43,300 [1]; group 15: PVB + OXA): 0.25
- Fold change (MRSA ATCC 43,300 [1]; [11]): 0.125
- bactericidal activity of combination with PVB (time-killing) (MRSA ATCC 43,300 [2]): synergistical bactericidal activity

- MICalone (MRSA ATCC 43,300 [1]): 128
- MICcombined (MRSA ATCC 43,300 [1]; [12]): 128
Compound: CN[C@@H]1[C@H](O)[C@H](NC)[C@H]2O[C@@]3(O)C(=O)C[C@@H](C)O[C@H]3O[C@@H]2[C@H]1O [SPC, spectinomycin]
- FICI (MRSA ATCC 43,300 [1]; group 21: PVB + SPC): 2
- Fold change (MRSA ATCC 43,300 [1]; [12]): 1

- MICalone (MRSA ATCC 43,300 [1]): 2
- MICcombined (MRSA ATCC 43,300 [1]; group 1: PVB combined with TET): 2
Compound: CN(C)[C@@H]1C(O)=C(C(N)=O)C(=O)[C@@]2(O)C(O)=C3C(=O)c4c(O)cccc4[C@@](C)(O)[C@H]3C[C@@H]12 [TET, tetracycline]
- FICI (MRSA ATCC 43,300 [1]; group 1: PVB + TET): 3
- Fold change (MRSA ATCC 43,300 [1]; group 1: PVB combined with TET): 1

- MICalone (MRSA ATCC 43,300 [1]): 64
- MICcombined (MRSA ATCC 43,300 [1]; [13]): 256
Compound: NC[C@H]1O[C@H](O[C@H]2[C@H](O)[C@@H](O[C@H]3O[C@H](CO)[C@@H](O)[C@H](N)[C@H]3O)[C@H](N)C[C@@H]2N)[C@H](N)C[C@@H]1O [TOB, tobramycin]
- FICI (MRSA ATCC 43,300 [1]; group 20: PVB + TOB): 5
- Fold change (MRSA ATCC 43,300 [1]; [13]): 4

- MICalone (MRSA ATCC 43,300 [1]): 1
- MICcombined (MRSA ATCC 43,300 [1]; group 9: PVB combined with VAN): 1
Compound: CN[C@H](CC(C)C)C(=O)N[C@H]1C(=O)N[C@@H](CC(N)=O)C(=O)N[C@H]2C(=O)N[C@H]3C(=O)N[C@H](C(=O)N[C@H](C(=O)O)c4cc(O)cc(O)c4-c4cc3ccc4O)[C@H](O)c3ccc(c(Cl)c3)Oc3cc2cc(c3O[C@@H]2O[C@H](CO)[C@@H](O)[C@H](O)[C@H]2O[C@H]2C[C@](C)(N)[C@H](O)[C@H](C)O2)Oc2ccc(cc2Cl)[C@H]1O [VAN, vancomycin]
- FICI (MRSA ATCC 43,300 [1]; group 9: PVB + VAN): 2
- Fold change (MRSA ATCC 43,300 [1]; group 9: PVB combined with VAN): 1
- persister cells killing [3]: resistant

- MICalone (MRSA ATCC 43,300 [1]): 16
- MICcombined (MRSA ATCC 43,300 [1]; [14]): 16
Compound: gentamycin
- FICI (MRSA ATCC 43,300 [1]; group 18: PVB + GEN): 2
- Outcome (MRSA ATCC 43,300 [1]; group 18: PVB + GEN): indifference (an indifference effect was defined as 1 < FICI ≤ 4)
- Fold change (MRSA ATCC 43,300 [1]; [14]): 1

Compound: penicillin
- FICI (MRSA ATCC 43,300 [1]; group 10: PVB + P): 1.5
- Outcome (MRSA ATCC 43,300 [1]; group 10: PVB + P): indifference (an indifference effect was defined as 1 < FICI ≤ 4)
